US8278032B2, “Transporter protein in mammal and utilization of the same” (priority 2005, dated 2012)
Where two headings read alike, the source gives them in different places.

Legend:
mMATE1 = target: T1, mMATE1 (Mus musculus, UniProt Q8K0H1); test: Inhibition of RI-labeled TEA uptake in HEK293 cells expressing mMATE1; assay type: cell-based; settings: for remaining activity at 1000 µM: compound 1 mM;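 for all read-outs here: transfected HEK293 cells held 5 min at 37 °C before tracer addition, uptake read as radioactivity retained on a 0.45-µm membrane filter, mean ± SD of three to nine experiments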
T1 construct: expressed in transfected cells; host or cells: HEK293
T1 sequence (Q8K0H1 with tags, fused parts or gaps): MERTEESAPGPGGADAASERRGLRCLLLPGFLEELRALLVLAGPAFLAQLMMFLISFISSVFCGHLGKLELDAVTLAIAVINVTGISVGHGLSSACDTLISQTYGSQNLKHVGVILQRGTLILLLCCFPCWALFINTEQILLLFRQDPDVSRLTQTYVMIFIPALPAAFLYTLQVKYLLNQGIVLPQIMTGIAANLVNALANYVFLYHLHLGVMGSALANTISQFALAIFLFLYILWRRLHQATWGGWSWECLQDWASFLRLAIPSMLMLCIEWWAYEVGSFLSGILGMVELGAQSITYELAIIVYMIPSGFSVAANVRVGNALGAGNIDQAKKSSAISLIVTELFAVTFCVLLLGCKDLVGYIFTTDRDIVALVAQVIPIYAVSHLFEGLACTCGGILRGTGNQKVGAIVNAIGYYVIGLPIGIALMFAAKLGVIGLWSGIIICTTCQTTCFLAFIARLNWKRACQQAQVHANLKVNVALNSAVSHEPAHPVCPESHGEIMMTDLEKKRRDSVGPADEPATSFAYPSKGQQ

hMATE1 [1] = target: T2, hMATE1 (Homo sapiens, UniProt Q96FL8); test: Inhibition of RI-labeled TEA uptake in HEK293 cells expressing hMATE1; settings: for Inhibition of TEA uptake activity (in words, summary of Table 1): MATE1 expressing HEK293 cells, 50 μM TEA, pH 8.0
T2 sequence (Q96FL8 1-570): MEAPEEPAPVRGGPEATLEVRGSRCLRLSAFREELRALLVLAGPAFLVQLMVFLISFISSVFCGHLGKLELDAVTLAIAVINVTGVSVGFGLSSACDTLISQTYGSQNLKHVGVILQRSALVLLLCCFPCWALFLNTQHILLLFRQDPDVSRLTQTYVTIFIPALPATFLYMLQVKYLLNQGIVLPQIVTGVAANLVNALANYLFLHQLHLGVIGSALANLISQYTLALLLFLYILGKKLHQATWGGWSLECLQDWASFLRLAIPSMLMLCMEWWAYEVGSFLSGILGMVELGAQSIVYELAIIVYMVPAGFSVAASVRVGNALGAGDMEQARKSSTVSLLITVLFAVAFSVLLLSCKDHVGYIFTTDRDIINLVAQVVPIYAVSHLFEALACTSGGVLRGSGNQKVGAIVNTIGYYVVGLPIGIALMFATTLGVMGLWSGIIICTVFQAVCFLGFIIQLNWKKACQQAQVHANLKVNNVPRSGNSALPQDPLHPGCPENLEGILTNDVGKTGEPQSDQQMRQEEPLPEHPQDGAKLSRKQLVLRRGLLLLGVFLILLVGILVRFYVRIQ

hMATE1 [2] = target: T2, hMATE1; settings: for Km: read-out: Km value of transport, substrate transport, cells expressing wild type MATE1 (TEA: FIG. 9(c)), MPP: MATE1, species not stated
hMATE1 [3] = target: T2, hMATE1; settings: 1 mM 14C-TEA, pH of extracellular fluid varied, FIG. 12
hMATE1 [4] = target: T2, hMATE1; settings: radioactive nicotine 2 μM, FIG. 10
[5] = compound 5 mM, 50 μM RI-labeled TEA, pH 8.0, HEK293 cells expressing mMATE1
[6] = compound 0.1 mM, 50 μM RI-labeled TEA, pH 8.0, HEK293 cells expressing hMATE1
[7] = compound 5 mM, 50 μM RI-labeled TEA, pH 8.0, HEK293 cells expressing hMATE1
[8] = HEK293, pH 8, read-out: TEA uptake activity percent taking the level with addition of no compound as 100% (% ± S.D.)
[9] = compound 0.01 mM, 50 μM RI-labeled TEA, pH 8.0, HEK293 cells expressing hMATE1
[10] = compound 0.1 mM, 50 μM RI-labeled TEA, pH 8.0, HEK293 cells expressing mMATE1, read-out: TEA uptake activity percent taking the level with addition of no compound as 100% (% ± S.D.)
[11] = 50 μM RI-labeled TEA, pH 8.0, HEK293 cells expressing mMATE1, read-out: TEA uptake activity percent taking the level with addition of no compound as 100% (% ± S.D.)
[12] = compound 1 mM, 50 μM RI-labeled TEA, pH 8.0, HEK293 cells expressing hMATE1
[13] = compound 5 mM, 50 μM RI-labeled TEA, pH 8.0, HEK293 cells expressing mMATE1, read-out: TEA uptake activity percent taking the level with addition of no compound as 100% (% ± S.D.)
[14] = compound 0.01 mM, 50 μM RI-labeled TEA, pH 8.0, HEK293 cells expressing mMATE1, read-out: TEA uptake activity percent taking the level with addition of no compound as 100% (% ± S.D.)
[15] = compound 10 mM, 50 μM RI-labeled TEA, pH 8.0, HEK293 cells expressing mMATE1

## C[n+]1ccc(-c2ccccc2)cc1 [MPP, 1-methyl-4-phenylpyridinium]
mMATE1; compound 0.1 mM, 50 μM RI-labeled TEA, pH 8.0, HEK293 cells expressing mMATE1
  TEA uptake activity percent taking the level with addition of no compound as 100% (% ± S.D.): 33.1 ± 9.5%
mMATE1; [5]
  TEA uptake activity percent taking the level with addition of no compound as 100% (% ± S.D.): 0.0 ± 2.1%
hMATE1 [1]
  Inhibition of TEA uptake activity (in words, summary of Table 1): inhibited
hMATE1 [1]; [6]
  TEA uptake activity percent taking the level with addition of no compound as 100% (% ± S.D.): 67.4 ± 8.4%
hMATE1 [1]; [7]
  TEA uptake activity percent taking the level with addition of no compound as 100% (% ± S.D.): 0.0 ± 0.3%
hMATE1 [2]; MPP as substrate, MATE1, species not stated
  Vmax of transport: 170 pmol/min/mg protein
hMATE1 [2]
  Km: 16 µM

## C[C@]12CC[C@H]3[C@@H](CCC4=CC(=O)CC[C@@]43C)[C@@H]1CC[C@@H]2O [Testosterone]
mMATE1; [8]
  remaining activity at 1 µM: 67 ± 8.7%
  remaining activity at 10 µM: 44.7 ± 3%
  remaining activity at 100 µM: 11.5 ± 1.1%
hMATE1 [1]
  Inhibition of TEA uptake activity (in words, summary of Table 1): inhibited
hMATE1 [1]; compound 0.001 mM, 50 μM RI-labeled TEA, pH 8.0, HEK293 cells expressing hMATE1
  TEA uptake activity percent taking the level with addition of no compound as 100% (% ± S.D.): 99.6 ± 4.3%
hMATE1 [1]; [9]
  TEA uptake activity percent taking the level with addition of no compound as 100% (% ± S.D.): 64.5 ± 14.7%
hMATE1 [1]; [6]
  TEA uptake activity percent taking the level with addition of no compound as 100% (% ± S.D.): 38.8 ± 3.2%

## Nc1ccc(C(=O)NCC(=O)O)cc1 [PAH]
mMATE1; [5]
  TEA uptake activity percent taking the level with addition of no compound as 100% (% ± S.D.): 94.7 ± 9.1%
hMATE1 [1]; [7]
  TEA uptake activity percent taking the level with addition of no compound as 100% (% ± S.D.): 110.3 ± 2.7%

## C[C@]12CCC(=O)C=C1CC[C@@H]1[C@@H]2CC[C@]2(C)C(=O)CC[C@@H]12 [Androstenedione]
mMATE1; [8]
  remaining activity at 100 µM: 8.6 ± 1.7%
hMATE1 [1]; [6]
  TEA uptake activity percent taking the level with addition of no compound as 100% (% ± S.D.): 36.6 ± 0.9%

## O=c1c(O)c(-c2ccc(O)c(O)c2)oc2cc(O)cc(O)c12 [Quercetin]
mMATE1; [10]
  remaining activity at 100 µM: 47.1 ± 0.1%
hMATE1 [1]
  Inhibition of TEA uptake activity (in words, summary of Table 1): inhibited
hMATE1 [1]; [6]
  TEA uptake activity percent taking the level with addition of no compound as 100% (% ± S.D.): 28.2 ± 3.1%

## CCCN(CCC)S(=O)(=O)c1ccc(C(=O)O)cc1 [Probenecid]
mMATE1; [11]
  remaining activity at 1000 µM: 93.7 ± 11.9%
hMATE1 [1]; [12]
  TEA uptake activity percent taking the level with addition of no compound as 100% (% ± S.D.): 108.5 ± 7.9%

## CC[N+](CC)(CC)CC [TEA, tetraethylammonium]
mMATE1; [5]
  TEA uptake activity percent taking the level with addition of no compound as 100% (% ± S.D.): 0.0 ± 7. %
hMATE1 [1]; pH 8
  TEA uptake activity percent taking the level with addition of no compound as 100% (% ± S.D.): 0.7 ± 1.8%
hMATE1 [2]
  Km: 220 µM
hMATE1 [3]
  Uptake of TEA into liposome containing MATE polypeptide (in words): pH-dependent uptake of TEA was observed

## C[N+](C)(C)CC(O)CC(=O)[O-] (stereo not shown) [Carnitine]
mMATE1; [13]
  remaining activity at 5000 µM: 71.2 ± 6.1%
hMATE1 [1]; [7]
  TEA uptake activity percent taking the level with addition of no compound as 100% (% ± S.D.): 104.2 ± 6.4%

## C[N+](C)(C)CCO [Choline]
mMATE1; [13]
  remaining activity at 5000 µM: 62 ± 8.8%
hMATE1 [1]; [7]
  TEA uptake activity percent taking the level with addition of no compound as 100% (% ± S.D.): 62.7 ± 4.1%

## CN1CCCC1c1cccnc1 (stereo not shown) [Nicotine]
mMATE1; [10]
  remaining activity at 100 µM: 91.9 ± 3.1%
mMATE1; [13]
  remaining activity at 5000 µM: 36.7 ± 3.1%
hMATE1 [1]
  Inhibition of TEA uptake activity (in words, summary of Table 1): mildly inhibited
hMATE1 [1]; [6]
  TEA uptake activity percent taking the level with addition of no compound as 100% (% ± S.D.): 63.7 ± 5.0%
hMATE1 [1]; [7]
  TEA uptake activity percent taking the level with addition of no compound as 100% (% ± S.D.): 5.8 ± 4.3%
hMATE1 [4]
  Nicotine transport by MATE1 (in words): functioning as a nicotine transporter

## CN/C(=N/CCSCc1nc[nH]c1C)NC#N [Cimetidine]
mMATE1; [14]
  remaining activity at 10 µM: 29.3 ± 5.2%
mMATE1; [10]
  remaining activity at 100 µM: 3.1 ± 5.1%
hMATE1 [1]
  Inhibition of TEA uptake activity (in words, summary of Table 1): strongly inhibited
hMATE1 [1]; [9]
  TEA uptake activity percent taking the level with addition of no compound as 100% (% ± S.D.): 44.7 ± 7.4%
hMATE1 [1]; [6]
  TEA uptake activity percent taking the level with addition of no compound as 100% (% ± S.D.): 9.7 ± 8.7%

## C[C@]12C[C@H](O)[C@H]3[C@@H](CCC4=CC(=O)CC[C@@]43C)[C@@H]1CC[C@@H]2C(=O)CO [Corticosterone]
mMATE1; [10]
  remaining activity at 100 µM: 50 ± 2.5%
hMATE1 [1]
  Inhibition of TEA uptake activity (in words, summary of Table 1): inhibited
hMATE1 [1]; [6]
  TEA uptake activity percent taking the level with addition of no compound as 100% (% ± S.D.): 10.0 ± 6.7%

## C=C[C@H]1C[N@@]2CC[C@H]1C[C@@H]2[C@@H](O)c1ccnc2ccc(OC)cc12 [Quinidine]
mMATE1; [14]
  remaining activity at 10 µM: 74.7 ± 9.8%
mMATE1; compound 0.05 mM, 50 μM RI-labeled TEA, pH 8.0, HEK293 cells expressing mMATE1, read-out: TEA uptake activity percent taking the level with addition of no compound as 100% (% ± S.D.)
  remaining activity at 50 µM: 50.3 ± 5.4%
mMATE1; [10]
  remaining activity at 100 µM: 26.6 ± 7.3%
hMATE1 [1]
  Inhibition of TEA uptake activity (in words, summary of Table 1): strongly inhibited
hMATE1 [1]; [9]
  TEA uptake activity percent taking the level with addition of no compound as 100% (% ± S.D.): 35.0 ± 2.1%
hMATE1 [1]; compound 0.05 mM, 50 μM RI-labeled TEA, pH 8.0, HEK293 cells expressing hMATE1
  TEA uptake activity percent taking the level with addition of no compound as 100% (% ± S.D.): 5.1 ± 8.9%
hMATE1 [1]; [6]
  TEA uptake activity percent taking the level with addition of no compound as 100% (% ± S.D.): 0.0 ± 4.2%

## O=C(O)c1ccccc1O [Salicylate]
mMATE1; [15]
  TEA uptake activity percent taking the level with addition of no compound as 100% (% ± S.D.): 92.4 ± 4.3%
hMATE1 [1]; pH 8
  TEA uptake activity percent taking the level with addition of no compound as 100% (% ± S.D.): 97.8 ± 4.8%

## O=C(O)CCC(=O)O [Succinate]
mMATE1; [15]
  TEA uptake activity percent taking the level with addition of no compound as 100% (% ± S.D.): 95.1 ± 6.3%
hMATE1 [1]; compound 10 mM, 50 μM RI-labeled TEA, pH 8.0, HEK293 cells expressing hMATE1
  TEA uptake activity percent taking the level with addition of no compound as 100% (% ± S.D.): 108.1 ± 4.2%

## O=c1[nH]c(=O)c2[nH]c(=O)[nH]c2[nH]1 [Uric acid]
mMATE1; [11]
  remaining activity at 1000 µM: 109 ± 6.4%
hMATE1 [1]
  Inhibition of TEA uptake activity (in words, summary of Table 1): not inhibited
hMATE1 [1]; [12]
  TEA uptake activity percent taking the level with addition of no compound as 100% (% ± S.D.): 107.8 ± 2.7%

## CCN(CC)CCNC(=O)c1ccc(N)cc1 [Procainamide]
mMATE1; [8]
  remaining activity at 100 µM: 65.7 ± 8.2%
hMATE1 [1]; [6]
  TEA uptake activity percent taking the level with addition of no compound as 100% (% ± S.D.): 62.6 ± 0.8%

## Rhodamine 123 [Rhodamine123]
mMATE1; compound 0.01 mM, 50 μM RI-labeled TEA, pH 8.0, HEK293 cells expressing mMATE1
  TEA uptake activity percent taking the level with addition of no compound as 100% (% ± S.D.): 0.5 ± 6.2%
hMATE1 [1]
  Inhibition of TEA uptake activity (in words, summary of Table 1): inhibited
hMATE1 [1]; [9]
  TEA uptake activity percent taking the level with addition of no compound as 100% (% ± S.D.): 5.0 ± 6.4%
